Patent publication US12329801B2, “Regenerative polypeptides and uses thereof” (JUVENA THERAPEUTICS, INC., priority 2021, dated 2025)

Key:
DM1 human myoblast = assay: Myogenic gene expression fold change in DM1 human myoblast; type: cell-based; settings: 48 h; BMP7 50 ng/mL, Butyrate 100 nM, IGF2 200 ng/mL
Procedure: Myoblasts were cultured 48 h in the presence of factors (BMP7 50 ng/mL, Butyrate 100 nM, IGF2 200 ng/mL).
Myoblasts were cultured 96 h in the presence of factors (IGF2 200 ng/ml). […] Myoblasts were cultured 48 h in the presence of factors (IGF2 200 ng/mL).
IGF2 was tested individually for its ability to promote proliferation and/or fusion of human muscle progenitor cells from an individual with myotonic dystrophy type 1 (hMD)—a muscular dystrophy caused by mutations in the DMPK1 gene. The effect of IGF2 on myogenic activity was assayed in biological triplicate across a range of concentrations centered around expected physiological levels by adding each factor to hMD myoblasts for 72 hours with daily media changes (DMEM +2% horse serum) and a second pulse of factors at the first media change. After 72 or 96 hours, cells were pulsed for 2-5 hours with EdU (30 uM), ethanol fixed, stained with Hoescht 3342, immunostained for proliferation—as measured by the percent of cells staining positive for EdU (% EdU)-, and immunostained for differentiation—as measured by the increase in cellular area staining positive for embryonic myosin heavy chain (% eMyHC) relative to the negative controls, which received media and vehicle only. Wells were imaged on a Keyence BZ-100 at 4×, the images quantified in Cell Profiler, and the statistics were computed in R. Additionally, RNA was extracted from myoblast and select transcript abundances quantified by qPCR.

[1] = tested on: human DM1 muscle precursors from person; assay: In vitro myogenesis assay, human DM1 muscle precursors; type: cell-based; settings: across a range of test article concentrations
Procedure: (§1) Human muscle progenitor cells (early passage myoblasts) were cultured and expanded in growth medium: Ham's F-10 (Gibco), 20% Bovine Growth Serum (Hyclone), 5 ng/mL FGF2 and 1% penicillin-streptomycin on Matrigel coated plates (1:300 matrigel: PBS), at 37° C. and 5% CO2. For experimental conditions, cells were plated at 40,000 cells/well on Matrigel coated 8-well chamber slides in 250-500 μL medium per well (1:100 matrigel: PBS) in human fusion medium: DMEM (Gibco)+2% horse serum (Hyclone). One hour after plating, human myoblasts were treated with 50% respective media: […] myoblasts were cultured for 24 hours in the above conditions, at 37° C. in 10% CO2 incubator. BrdU (300 uM) in DMSO was added for 2 hours prior to fixation with cold 70% ethanol and stored at 4° C. until staining.
(§2) Following permeabilization in PBS+0.25% t-Octylphenoxypolyethoxyethanol (Triton™ X-100), antigen retrieval was performed. Primary staining was performed with primary antibodies including: a species-specific monoclonal antibody for mouse anti-embryonic Myosin Heavy Chain (eMyHC, hybridoma clone 1.652, Developmental Studies Hybridoma Bank) and Rat-anti-BrdU (Abcam Inc. ab6326). […]

[2] = tested on: healthy human muscle precursors from person; assay: In vitro myogenesis assay, healthy human muscle precursors; type: cell-based
Procedure: as §1, §2

[3] = Murine pharmacokinetics, intravenous, ELISA, non-compartment analysis; type: in vivo, mice; settings: mice
Procedure: Murine pharmacokinetics (PK) represents the absorption, distribution, metabolism, and elimination of drugs from the body. The pharmacokinetic profile of the therapeutic polypeptides were determined in mice (10-12 weeks old). Mice were fed ad libitum and housed under controlled conditions of lighting (12-hour light/12-hour dark) and temperature (22-24° C.). Mice were allowed to acclimate for 3 days prior to the initiation of the experiment. Intravenous (IV) injection in 10-12 weeks old mice. Engineered mitogenic polypeptides concentrations in the samples were measured by ELISA. Various pharmacokinetics will be calculated as well as the absorption/elimination dynamics following different routes of administration.

[4] = tested on: female C57/BL6 (NIA) mice (20 months of age); assay: Acute injury model (cardiotoxin in tibialis anterior); type: in vivo; settings: IM 0.4 ug/20 μL every other day, vs vehicle (HSA)
Procedure: The acute injury model of Example 18 was used. […] female C57/BL6 (NIA) mice (20 months of age) were injected intramuscularly (IM) in each tibialis anterior with cardiotoxin at day one (10 ug/20 μL) and from day two the mice were given IM injections every other day with 0.4 ug/20 μL of 6HIS-HSA-IGF2R61A (SEQ ID NO: 34) or vehicle (0.4 ug/20 μL of HSA).

human myoblast cells = assay: Differentiation of human myoblast cells (MyHC immunostaining, percentage area); type: cell-based; settings: Fc4 fusions, 96 hours with daily media change, concentration not printed (FIG. 1B)
Procedure: (§3) FIG. 1A: The suspension CHO cells were transiently transfected with the IGF2-hFcm encoding plasmid. IGF2-hFcm was affinity-purified by Protein A membrane column. The purified IGF2-hFcm was added into the culture of human myoblast cells for 96 hours. Myosin heavy chain (MyHC) was immunostained and imaged by a fluorescence microscope.
as §3, with “1B:” for “1A:”, “IGF2-LhFc4” for “IGF2-hFcm”, “hours with daily media change.” for “hours.”
FIG. 2A: The suspension CHO cells were transiently transfected with the HSA-L-IGF2R61A encoding plasmid. HSA-L-IGF2R61A was affinity-purified by Protein A membrane column. […] Myosin heavy chain (MyHC) was immunostained and imaged by a fluorescence microscope.
Suspension CHO cells were transiently transfected with the IGF2-hFcm encoding plasmid. […] After quantification of the stained MyHC, the percentage area of MyHC was calculated as the percent of pixels within the field that are illuminated above background in the stained channel. […] Significance was determined by a p-value less than 0.05 by the one-way ANOVA Tukey Honest Significant Difference test.

CCCC(=O)[O-].[Na+] [NaBut, sodium butyrate]
MYF5 expression fold change compared to FM (vehicle) (DM1 human myoblast): 1.128
MYOD1 expression fold change compared to FM (vehicle) (DM1 human myoblast): 1.095
MYOG expression fold change compared to FM (vehicle) (DM1 human myoblast): 1.020

HSA-IGF2R61A: His tagged HSA fusion IGF2 R61A mutant with a long linker, SEQ ID NO: 34
activity relative to IGF2 at equimolar concentrations [1]: equal activity
activity relative to IGF2 at equimolar concentrations ([2]; across a range of test article concentrations): equal activity
activity relative to HSA-IGF2 at equimolar concentrations ([2]; before or after size exclusion purification via HPLC): equal or increased activity
serum half-life compared to the natural sequence of IGF2 [3]: significantly improved serum half-life
force production (max contraction rate) [4]: increased force production
force production (specific force-frequency) [4]: increased force production
muscle fatigue (specific fatigue index) [4]: reduced muscle fatigue
muscle mass [4]: increased muscle mass
regenerative index (number of new fibers per square millimeter) [4]: increased regenerative index
relation rates [4]: improved relation rates

IGF2-hFc4: Human IGF2-hFc4, SEQ ID NO: 39
% MyHC (human myoblast cells): 6.901%
